Assay results reported in US20200131177A1, “PESTICIDALLY ACTIVE HETEROCYCLIC DERIVATIVES WITH SULFUR CONTAINING SUBSTITUENTS” (SYNGENTA PARTICIPATIONS AG, priority 2017, published 2020).

How the values were obtained:
Format in all cases: in vivo
[1] = system: Myzus persicae (Green Peach Aphid); assay: Example B5: Myzus persicae, sprayed sunflower leaf discs; details: foliar, 144 h, application rate of 200 ppm, aphid population of mixed ages, 6 days after infestation
Description: Example B5: Myzus persicae (Green Peach Aphid)
Sunflower leaf discs were placed onto agar in a 24-well microtiter plate and sprayed with aqueous test solutions prepared from 10′000 ppm DMSO stock solutions. After drying, the leaf discs were infested with an aphid population of mixed ages. The samples were assessed for mortality 6 days after infestation.

[2] = system: Plutella xylostella (Diamond Back Moth); assay: Example B3: Plutella xylostella, treated artificial diet; details: 120 h, application rate of 200 ppm, L2 larvae, 5 days after infestation, read-out: effect in at least one of the two categories (mortality or growth inhibition)
Description: Example B3: Plutella xylostella (Diamond Back Moth)
24-well microtiter plates with artificial diet were treated with aqueous test solutions prepared from 10′000 ppm DMSO stock solutions by pipetting. After drying, the plates were infested with L2 larvae (10 to 15 per well). The samples were assessed for mortality and growth inhibition in comparison to untreated samples 5 days after infestation.

[3] = system: Euschistus heros (Neotropical Brown Stink Bug); assay: Example B9: Euschistus heros, sprayed soybean leaves; details: 120 h, application rate of 200 ppm, N2 nymphs, 5 days after infestation, read-out: effect in at least one of the two categories (mortality or growth inhibition)
Description: Example B9: Euschistus heros (Neotropical Brown Stink Bug)
Soybean leaves on agar in 24-well microtiter plates were sprayed with aqueous test solutions prepared from 10′000 ppm DMSO stock solutions. After drying the leaves were infested with N2 nymphs. The samples were assessed for mortality and growth inhibition in comparison to untreated samples 5 days after infestation.

[4] = system: Diabrotica balteata (Corn Root Worm); assay: Example B4: Diabrotica balteata, sprayed maize sprouts; details: 96 h, application rate of 200 ppm, L2 larvae, 4 days after infestation, read-out: effect in at least one of the two categories (mortality or growth inhibition)
Description: Example B4: Diabrotica balteata (Corn Root Worm)
Maize sprouts placed onto an agar layer in 24-well microtiter plates were treated with aqueous test solutions prepared from 10′000 ppm DMSO stock solutions by spraying. After drying, the plates were infested with L2 larvae (6 to 10 per well). The samples were assessed for mortality and growth inhibition in comparison to untreated samples 4 days after infestation.

[5] = system: Spodoptera littoralis (Egyptian Cotton Leaf Worm); assay: Example B1: Spodoptera littoralis, sprayed cotton leaf discs; details: foliar, 72 h, application rate of 200 ppm, L1 larvae, 3 days after infestation, read-out: control (mortality, anti-feeding effect or growth inhibition)
Description: Example B1: Spodoptera littoralis (Egyptian Cotton Leaf Worm)
Cotton leaf discs were placed onto agar in 24-well microtiter plates and sprayed with aqueous test solutions prepared from 10′000 ppm DMSO stock solutions. After drying the leaf discs were infested with five L1 larvae. The samples were assessed for mortality, anti-feeding effect, and growth inhibition in comparison to untreated samples 3 days after infestation. Control of Spodoptera littoralis by a test sample is given when at least one of the categories mortality, anti-feedant effect, and growth inhibition is higher than the untreated sample.

[6] = system: Myzus persicae (Green Peach Aphid); assay: Example B6: Myzus persicae, roots of pea seedlings in test solution; details: 144 h, test rate of 24 ppm, aphid population of mixed ages, 6 days after placing seedlings into test solutions
Description: Example B6: Myzus persicae (Green Peach Aphid)
Roots of pea seedlings infested with an aphid population of mixed ages were placed directly into aqueous test solutions prepared from 10′000 DMSO stock solutions. The samples were assessed for mortality 6 days after placing seedlings into test solutions.

[7] = system: Bemisia tabaci (Cotton White Fly); assay: Example B8: Bemisia tabaci, sprayed cotton leaf discs; details: foliar, 144 h, application rate of 200 ppm, adult white flies, 6 days after incubation
Description: Example B8: Bemisia tabaci (Cotton White Fly)
Cotton leaf discs were placed on agar in 24-well microtiter plates and sprayed with aqueous test solutions prepared from 10′000 ppm DMSO stock solutions. After drying the leaf discs were infested with adult white flies. The samples were checked for mortality 6 days after incubation.

[8] = system: Tetranychus urticae (Two-Spotted Spider Mite); assay: Example B10: Tetranychus urticae, sprayed bean leaf discs; details: foliar, 192 h
Description: Example B10: Tetranychus urticae (Two-Spotted Spider Mite)
Bean leaf discs on agar in 24-well microtiter plates were sprayed with aqueous test solutions prepared from 10′000 ppm DMSO stock solutions. After drying the leaf discs were infested with a mite population of mixed ages. The samples were assessed for mortality on mixed population (mobile stages) 8 days after infestation.

[9] = system: Frankliniella occidentalis (Western Flower Thrips); assay: Example B12: Frankliniella occidentalis, sprayed sunflower leaf discs; details: foliar, 168 h, application rate of 200 ppm, population of mixed ages, 7 days after infestation
Description: Example B12: Frankliniella occidentalis (Western Flower Thrips)
Sunflower leaf discs were placed on agar in 24-well microtiter plates and sprayed with aqueous test solutions prepared from […] stock solutions. After drying the leaf discs were infested with a Frankliniella population of mixed ages. The samples were assessed for mortality 7 days after infestation.

CCS(=O)(=O)c1cc(OC(C)C)cnc1-c1nc2cc(SC(F)F)ncc2n1C [Compound P12, 6-(difluoromethylsulfanyl)-2-(3-ethylsulfonyl-5-isopropoxy-2-pyridyl)-3-methyl-imidazo[4,5-c]pyridine]
≥ 80%: mortality at 200 ppm [1] | percent effect (mortality or growth inhibition) at 200 ppm [2] | percent effect (mortality or growth inhibition) at 200 ppm [3] | percent effect (mortality or growth inhibition) at 200 ppm [4] | percent control (mortality, anti-feedant effect or growth inhibition) at 200 ppm [5] | mortality at 24 ppm [6]

CCS(=O)(=O)c1cc(C(F)(F)F)cnc1-c1nc2cc(S(=O)(=O)C(F)F)ncc2n1C [Compound P1, 6-(difluoromethylsulfonyl)-2-[3-ethylsulfonyl-5-(trifluoromethyl)-2-pyridyl]-3-methyl-imidazo[4,5-c]pyridine]
≥ 80%: mortality at 200 ppm [1] | percent effect (mortality or growth inhibition) at 200 ppm [2] | percent effect (mortality or growth inhibition) at 200 ppm [3] | percent effect (mortality or growth inhibition) at 200 ppm [4] | mortality at 200 ppm [7] | percent control (mortality, anti-feedant effect or growth inhibition) at 200 ppm [5] | mortality at 24 ppm [6]

CCS(=O)(=O)c1cccnc1-c1nc2cc([S+]([O-])C(F)F)ncc2n1C (stereo not drawn) [Compound P4]
≥ 80%: mortality at 200 ppm [1] | percent effect (mortality or growth inhibition) at 200 ppm [3] | percent effect (mortality or growth inhibition) at 200 ppm [4] | mortality at 24 ppm [6]

CCS(=O)(=O)c1ccc(-n2cncn2)nc1-c1nc2cc(SC(F)F)ncc2n1C [Compound P9, 6-(difluoromethylsulfanyl)-2-[3-ethylsulfonyl-6-(1,2,4-triazol-1-yl)-2-pyridyl]-3-methyl-imidazo[4,5-c]pyridine]
≥ 80%: mortality at 200 ppm [1] | percent effect (mortality or growth inhibition) at 200 ppm [3] | percent effect (mortality or growth inhibition) at 200 ppm [4] | mortality at 200 ppm [7] | percent control (mortality, anti-feedant effect or growth inhibition) at 200 ppm [5] | mortality at 24 ppm [6]

CCS(=O)(=O)c1cc(OC(C)C)cnc1-c1nc2cc([S+]([O-])C(F)F)ncc2n1C (stereo not drawn) [Compound P11, 6-(difluoromethylsulfinyl)-2-(3-ethylsulfonyl-5-isopropoxy-2-pyridyl)-3-methyl-imidazo[4,5-c]pyridine]
≥ 80%: mortality at 200 ppm [1] | percent effect (mortality or growth inhibition) at 200 ppm [2] | percent effect (mortality or growth inhibition) at 200 ppm [3] | mortality at 200 ppm [8] | percent control (mortality, anti-feedant effect or growth inhibition) at 200 ppm [5] | mortality at 24 ppm [6]

CCS(=O)(=O)c1cc(OC(C)C)cnc1-c1nc2cc(S(=O)(=O)C(F)F)ncc2n1C [Compound P10, 6-(difluoromethylsulfonyl)-2-(3-ethylsulfonyl-5-isopropoxy-2-pyridyl)-3-methyl-imidazo[4,5-c]pyridine]
≥ 80%: mortality at 200 ppm [1] | percent effect (mortality or growth inhibition) at 200 ppm [2] | percent effect (mortality or growth inhibition) at 200 ppm [3] | mortality at 200 ppm [8] | percent control (mortality, anti-feedant effect or growth inhibition) at 200 ppm [5] | mortality at 24 ppm [6]

CCS(=O)(=O)c1cc(C(F)(F)F)cnc1-c1nc2cc([S+]([O-])C(F)F)ncc2n1C (stereo not drawn) [Compound P2, 6-(difluoromethylsulfinyl)-2-[3-ethylsulfonyl-5-(trifluoromethyl)-2-pyridyl]-3-methyl-imidazo[4,5-c]pyridine]
≥ 80%: mortality at 200 ppm [1] | percent effect (mortality or growth inhibition) at 200 ppm [2] | percent effect (mortality or growth inhibition) at 200 ppm [3] | percent effect (mortality or growth inhibition) at 200 ppm [4] | mortality at 200 ppm [7] | percent control (mortality, anti-feedant effect or growth inhibition) at 200 ppm [5] | mortality at 24 ppm [6]

CCS(=O)(=O)c1cccnc1-c1nc2cc(SC(F)F)ncc2n1C [Compound P6, 6-(difluoromethylsulfanyl)-2-(3-ethylsulfonyl-2-pyridyl)-3-methyl-imidazo[4,5-c]pyridine]
≥ 80%: mortality at 200 ppm [1] | percent effect (mortality or growth inhibition) at 200 ppm [3] | percent effect (mortality or growth inhibition) at 200 ppm [4] | mortality at 24 ppm [6]

CCS(=O)(=O)c1cc(C(F)(F)F)cnc1-c1nc2cc(SC(F)F)ncc2n1C [Compound P3, 6-(difluoromethylsulfanyl)-2-[3-ethylsulfonyl-5-(trifluoromethyl)-2-pyridyl]-3-methyl-imidazo[4,5-c]pyridine]
≥ 80%: mortality at 200 ppm [1] | percent effect (mortality or growth inhibition) at 200 ppm [2] | percent effect (mortality or growth inhibition) at 200 ppm [3] | percent effect (mortality or growth inhibition) at 200 ppm [4] | mortality at 200 ppm [9] | mortality at 200 ppm [7] | percent control (mortality, anti-feedant effect or growth inhibition) at 200 ppm [5] | mortality at 24 ppm [6]

CCS(=O)(=O)c1ccc(-n2cncn2)nc1-c1nc2cc([S+]([O-])C(F)F)ncc2n1C (stereo not drawn) [Compound P8, 6-(difluoromethylsulfinyl)-2-[3-ethylsulfonyl-6-(1,2,4-triazol-1-yl)-2-pyridyl]-3-methyl-imidazo[4,5-c]pyridine]
≥ 80%: mortality at 200 ppm [1] | percent effect (mortality or growth inhibition) at 200 ppm [3] | percent effect (mortality or growth inhibition) at 200 ppm [4] | mortality at 200 ppm [7] | mortality at 24 ppm [6]

CCS(=O)(=O)c1ccc(-n2cncn2)nc1-c1nc2cc(S(=O)(=O)C(F)F)ncc2n1C [Compound P7, 6-(difluoromethylsulfonyl)-2-[3-ethylsulfonyl-6-(1,2,4-triazol-1-yl)-2-pyridyl]-3-methyl-imidazo[4,5-c]pyridine]
≥ 80%: mortality at 200 ppm [1] | percent effect (mortality or growth inhibition) at 200 ppm [3] | percent effect (mortality or growth inhibition) at 200 ppm [4] | mortality at 24 ppm [6]
